Patent publication US9011820B2, “Screening tool for antiviral agents” (Saint Louis University, priority 2007, dated 2015)
Like-named read-outs stand apart in the source and are kept apart here.

How the values were obtained:
[1] = system: Ad serotypes from Species A, B, C, D, E, and F in HEp-2 cells; details: cited from earlier work
HaK tumors = format: in vivo, hamsters; details: CP twice weekly
Description: In an illustrative example, a tumor experiment in hamsters immunosuppressed with cyclophosphamide (CP) was conducted. Hamsters with very large (about 1.1 ml mean) established tumors (formed by the hamster renal cancer cell line named HaK) were treated with CP on day 1, then starting on day 4 the tumors were injected with VRX-007, Ad5, or buffer. CP was administered twice weekly throughout the study. […] Established large, about 1.1 ml, subcutaneous HaK tumors were injected intratumorally (6 injections, 1×10^10 PFU each) with VRX-007, wild-type Ad5, or vehicle (saline only). For each of these treatments, one group was immunosuppressed with CP and one group remained immunocompetent. Tumor volumes were measured with digital calipers twice per week. […] The tumors are from the 42 day time point.

[2] = in vivo; cited from earlier work
[3] = system: Ad serotypes 1, 2, 5, and 8; details: cited from earlier work
VRX-007 = test: Cidofovir inhibition of VRX-007 replication in A549 cells (crystal violet staining); format: cell-based, human adenovirus; details: 10 or 0.1 PFU/cell, stained seven days post infection
Description: A549 cells were mock-infected or infected with 10 or 0.1 plaque-forming units (PFU)/cell of VRX-007. Concomitantly, cidofovir was added to the medium at the indicated concentrations. The cells were stained with crystal violet dye at seven days post infection. Cidofovir has shown some efficacy in the rabbit and cotton rat models of ocular models of Ad5 infection.

Ad = details: cited from earlier work
Ad5 [4] = details: rabbit; cited from earlier work
Ad ocular infections = details: large multi-center trial, humans, cited from earlier work
Ad5 [5] = details: cotton rat; cited from earlier work
Ad5 [6] = test: HDP-CDV in Ad5-infected normal and CP-immunosuppressed Syrian hamsters; format: in vivo; details: 2.5 mg/kg oral gavage daily for 6 days, Days 3 and 6
Description: FIGS. 12A-12D are graphical representations illustrating HDP-CDV decreasing adenovirus induced liver toxicity and viral load.
Syrian hamsters (females, average weight 98 g) were immunosuppressed with twice weekly injections of cyclophosphamide (starting on Day −6; 140 mg/kg i.p. for the first dose, then 100 mg/kg). On Day 0, the animals were injected intravenously (into the jugular vein) with 1.9×10^12 vp/kg (ca. 3×10^10 PFU/animal) of Ad5 or AdCMVpA, and half of them were treated with HDPCDV (2.5 mg/kg via oral gavage daily for 6 days, starting on Day −1). On Days 3 and 6, hamsters were sacrificed and their sera were analyzed for transaminases (panel A=ALT; panel B=AST) and bilirubin (panel C). Infectious virus titers in the liver were determined, by TCID50 assays; the dashed line in the graph marks the threshold of quantifiability, horizontal lines represent group means, n-4, except for clinical chemistry for the Ad5 CP group on Day 6 (n=2); the error bars represent standard deviation.

Ad5 [7] = test: HDP-CDV in Ad5-infected immunosuppressed mice; format: in vivo; details: daily 2.5 mg/kg oral gavage
Description: Immunocompetent mice and mice immunosuppressed with CP were injected intravenously with 1.5×10^11 vp/kg of Ad5 or AdCMVpA, a replication defective adenovirus. Half of the animals in each group were treated via oral gavage with daily doses of 2.5 mg/kg of HDP-CDV, starting a day before virus injection. At the indicated times, mice were sacrificed and infectious virus titers in the liver were determined.

[8] = prospective study, eight pediatric stem cell transplant patients

## NC(=O)c1ncn([C@@H]2O[C@H](CO)[C@@H](O)[C@H]2O)n1 [ribavirin]
[1]
  inhibition of Ad replication by species: Only Species C was inhibited

## O=P1(N(CCCl)CCCl)NCCCO1 (stereo not shown) [CP, cyclophosphamide]
CP twice weekly
  total white blood cell (WBC) count: dropped to very low levels by day 12
CP-treated hamsters, end of experiment (42 days), 15.95 g/dl at the start
  hemoglobin level (average): 6.95 g/dL
CP-treated hamsters, end of experiment, 8.39×10^6/mm^3 at the start
  red blood cells (RBC): 3.96×10^6 mm^3
HaK tumors
  growth of buffer-injected tumors: did not affect growth

## Nc1ccn(C[C@@H](CO)OCP(=O)(O)O)c(=O)n1 [cidofovir, (S)-9-[3-hydroxy-2-(phosphonomethyloxy)propyl] cytosine]
[2]
  oral bioavailability: poor oral bioavailability
[3]
  inhibition of Ad replication in cell culture: potent, nontoxic inhibitor
VRX-007
  inhibition of replication of VRX-007: inhibits the replication
Ad; accumulation of the drug in renal proximal tubules
  toxicity of systemic use: nephrotoxicity
Ad; bone marrow transplant patients
  efficacy against Ad-associated hemorrhagic cystitis and renal dysfunction: effective
Ad; disseminated Ad in pediatric liver transplant patient, Ad7 in B cell lymphoma adult patient with meningoencephalitis
  resolution of Ad infection in case reports: seemed to resolve
Ad; patients immunosuppressed because of stem cell and bone marrow transplants
  efficacy against Ad: some efficacy
Ad; [8]
  dose-limiting nephrotoxicity: without dose-limiting nephrotoxicity
  suppression of Ad: seemed to provide long term suppression of Ad
Ad5 [4]
  efficacy in ocular model of Ad5 infection: some efficacy
Ad ocular infections
  efficacy against Ad ocular infections: Significant efficacy
Ad ocular infections; trial discontinued
  efficacy/toxicity ratio: narrow efficacy/toxicity ratio
Ad5 [5]
  efficacy in ocular model of Ad5 infection: some efficacy
[1]
  inhibition of Ad replication by species: inhibited replication in HEp-2 cells of serotypes from Species A, B, D, E, and F

## CCCCCCCCCCCCCCCCOCCCOP(=O)(O)CO[C@H](CO)Cn1ccc(N)nc1=O [HDP-CDV, Hexadecyloxypropyl-cidofovir]
Ad5 [6]
  adenoviral loads (infectious virus titers in the liver, TCID50): effectively and significantly reduces
  liver toxicity (ALT, AST, bilirubin): effectively and significantly reduces liver toxicity
Ad5 [7]
  replication of Ad5 (infectious virus titers in the liver): suppressing the replication
